Test results reported in ChEMBL document CHEMBL5543163, “Druglike, 18F-labeled PET Tracers Targeting Fibroblast Activation Protein” (J Med Chem, 2024).

How the values were obtained:
[1] = target: T1, Prolyl endopeptidase FAP (Homo sapiens, UniProt Q12884); assay: Inhibition of FAP (unknown origin)
T1 sequence (Q12884 whole entry): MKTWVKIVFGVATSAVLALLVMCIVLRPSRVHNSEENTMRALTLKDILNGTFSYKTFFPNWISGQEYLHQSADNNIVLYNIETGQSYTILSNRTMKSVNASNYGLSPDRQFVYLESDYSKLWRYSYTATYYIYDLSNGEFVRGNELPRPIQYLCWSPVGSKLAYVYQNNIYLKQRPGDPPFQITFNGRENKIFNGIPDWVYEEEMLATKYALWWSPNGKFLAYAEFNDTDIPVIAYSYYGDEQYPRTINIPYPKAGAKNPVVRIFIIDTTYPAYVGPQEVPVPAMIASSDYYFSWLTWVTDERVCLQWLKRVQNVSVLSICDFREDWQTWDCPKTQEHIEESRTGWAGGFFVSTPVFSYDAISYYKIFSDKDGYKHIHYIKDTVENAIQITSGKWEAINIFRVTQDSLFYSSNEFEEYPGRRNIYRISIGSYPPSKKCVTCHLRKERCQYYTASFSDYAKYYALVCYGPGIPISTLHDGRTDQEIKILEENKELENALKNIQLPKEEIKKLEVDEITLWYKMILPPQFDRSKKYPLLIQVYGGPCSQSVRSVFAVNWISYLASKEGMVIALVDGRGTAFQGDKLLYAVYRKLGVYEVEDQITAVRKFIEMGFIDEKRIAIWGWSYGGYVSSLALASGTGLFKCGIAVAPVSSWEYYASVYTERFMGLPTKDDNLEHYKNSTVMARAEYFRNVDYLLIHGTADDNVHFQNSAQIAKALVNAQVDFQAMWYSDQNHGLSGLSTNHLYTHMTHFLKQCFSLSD

[2] = target: T2, Prolyl endopeptidase (Homo sapiens, UniProt P48147); assay: Inhibition of PREP (unknown origin)
T2 sequence (P48147 whole entry): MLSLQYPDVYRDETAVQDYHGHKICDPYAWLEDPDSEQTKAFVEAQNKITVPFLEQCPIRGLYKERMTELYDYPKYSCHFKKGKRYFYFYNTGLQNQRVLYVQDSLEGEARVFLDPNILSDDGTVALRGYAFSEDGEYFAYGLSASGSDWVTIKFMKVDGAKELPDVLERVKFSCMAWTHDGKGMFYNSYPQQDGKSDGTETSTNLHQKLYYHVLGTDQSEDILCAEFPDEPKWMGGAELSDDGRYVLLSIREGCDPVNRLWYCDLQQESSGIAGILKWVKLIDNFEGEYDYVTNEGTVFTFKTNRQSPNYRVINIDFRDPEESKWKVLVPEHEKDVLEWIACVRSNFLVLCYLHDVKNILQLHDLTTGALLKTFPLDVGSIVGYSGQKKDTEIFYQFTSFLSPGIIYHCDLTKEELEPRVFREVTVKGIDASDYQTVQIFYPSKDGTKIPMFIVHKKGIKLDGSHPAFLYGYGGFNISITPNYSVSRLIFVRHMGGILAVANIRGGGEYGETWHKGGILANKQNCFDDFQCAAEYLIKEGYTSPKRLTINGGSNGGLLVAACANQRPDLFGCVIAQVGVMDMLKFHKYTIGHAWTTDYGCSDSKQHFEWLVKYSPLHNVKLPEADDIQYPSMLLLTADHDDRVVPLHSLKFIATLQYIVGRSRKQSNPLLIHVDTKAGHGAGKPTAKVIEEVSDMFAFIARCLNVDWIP

[3] = target: Dipeptidyl peptidase 8 (Homo sapiens, UniProt Q6V1X1); assay: Inhibition of DPP8 (unknown origin)
Chain of Dipeptidyl peptidase 8 (Q6V1X1 whole entry): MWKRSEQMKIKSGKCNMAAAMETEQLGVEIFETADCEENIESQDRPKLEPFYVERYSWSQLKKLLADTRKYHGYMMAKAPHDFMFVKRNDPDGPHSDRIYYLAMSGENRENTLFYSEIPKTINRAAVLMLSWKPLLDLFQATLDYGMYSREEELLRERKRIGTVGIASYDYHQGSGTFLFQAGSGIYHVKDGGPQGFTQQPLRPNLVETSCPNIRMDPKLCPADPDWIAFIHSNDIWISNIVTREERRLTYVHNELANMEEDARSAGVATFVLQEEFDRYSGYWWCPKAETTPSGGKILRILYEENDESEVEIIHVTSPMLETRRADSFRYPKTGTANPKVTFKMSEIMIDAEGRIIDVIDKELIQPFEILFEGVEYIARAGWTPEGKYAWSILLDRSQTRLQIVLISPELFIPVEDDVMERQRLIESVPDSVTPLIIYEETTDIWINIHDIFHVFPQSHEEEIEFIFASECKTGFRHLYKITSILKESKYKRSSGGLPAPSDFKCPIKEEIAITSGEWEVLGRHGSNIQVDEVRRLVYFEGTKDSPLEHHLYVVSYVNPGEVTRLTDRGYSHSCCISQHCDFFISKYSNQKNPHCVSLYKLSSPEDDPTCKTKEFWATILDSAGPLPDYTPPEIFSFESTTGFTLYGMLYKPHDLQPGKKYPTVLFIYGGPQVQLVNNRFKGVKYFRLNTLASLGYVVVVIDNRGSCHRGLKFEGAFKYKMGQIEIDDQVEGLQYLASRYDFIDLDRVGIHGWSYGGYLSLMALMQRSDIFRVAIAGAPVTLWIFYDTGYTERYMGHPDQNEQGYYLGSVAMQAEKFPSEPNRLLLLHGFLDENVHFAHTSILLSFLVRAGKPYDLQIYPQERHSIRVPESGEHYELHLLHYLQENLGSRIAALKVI

SMILES | IC50 [1] [nM] | IC50 [2] [nM] | IC50 [3] [nM]
CN(CC(=O)O)C1(CCCCNCCNc2c(NCCCCOc3ccc4nccc(C(=O)NCC(=O)N5CC(F)(F)C[C@H]5C#N)c4c3)c(=O)c2=O)CN(CC(=O)O)CCN(CC(=O)O)C1 | 0.8 | 1700 | –
N#C[C@@H]1CC(F)(F)CN1C(=O)CNC(=O)c1ccnc2ccccc12 | – | – | 4700
